Measured values as given in patent US20160347750A1, “DIHYDROPTERIDINONE DERIVATIVES AND USES THEREOF” (Dana-Farber Cancer Institute, Inc., priority 2014, published 2016).
Read-outs that look alike come from different tables or passages of the source.

Assays:
BRD4.1 [1] = target: T1, BRD4.1 (Homo sapiens, UniProt O60885); conditions: read-out: ITC (Kd); BRD4.1, ITC at 25 C
BRD4.1 [2] = target: T1, BRD4.1; conditions: read-out: BRD4.1 (IC50)
MV411 = assay: Cell line IC50, MV411; assay type: cell-based
TF-1 = assay: Cell line IC50, TF-1; assay type: cell-based; conditions: TF-1 cell line
MOLM-13 = assay: Cell line IC50, MOLM-13; assay type: cell-based; conditions: MOLM-13 cell line
BRD4 [3] = target: T2, BRD4 (Homo sapiens, UniProt O60885); assay: BRD4 IC50, first listed in Table 2; assay type: binding; conditions: first BRD4 value listed in the cell
NOMO1 = assay: Cell line IC50, NOMO1; assay type: cell-based
Kasumi-1 = assay: Cell line IC50, Kasumi-1; assay type: cell-based; conditions: Kasumi-1 cell line
797 = assay: Cellular assay, cell viability by ATPlite, 797 cells; assay type: cell-based; conditions: for IC50: read-out: 797 IC50
BRD4 [4] = target: T2, BRD4; assay: BRD4 IC50, second listed in Table 2; assay type: binding
PLK1 = PLK1 (Homo sapiens, UniProt P53350); assay: PLK1 kinase IC50, Table 2; assay type: biochemical
BRDT = BRDT (Homo sapiens, UniProt Q58F21); assay: BRDT IC50, Table 2; assay type: binding
AURKA = target: T3, AURKA (Homo sapiens, UniProt O14965); assay: AURKA kinase IC50, Table 2; assay type: biochemical
T3 sequence (O14965 1-403): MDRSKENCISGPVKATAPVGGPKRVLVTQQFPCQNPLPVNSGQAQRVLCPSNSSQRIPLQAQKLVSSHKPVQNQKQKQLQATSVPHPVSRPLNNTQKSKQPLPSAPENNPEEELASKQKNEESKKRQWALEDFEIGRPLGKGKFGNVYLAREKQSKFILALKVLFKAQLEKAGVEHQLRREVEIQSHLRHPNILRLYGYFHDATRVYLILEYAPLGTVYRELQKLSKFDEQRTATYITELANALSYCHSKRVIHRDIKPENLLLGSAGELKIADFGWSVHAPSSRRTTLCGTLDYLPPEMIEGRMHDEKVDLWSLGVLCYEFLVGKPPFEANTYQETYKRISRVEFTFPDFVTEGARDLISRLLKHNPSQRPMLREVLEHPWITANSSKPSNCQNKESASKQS

HL60 = assay: cells; conditions: Homo sapiens, HL-60, read-out: HL60 (EC50, M)
[5] = Homo sapiens, NOMO-1, NOMO1 cell line
[6] = second BRD4 value listed in the cell, read-out: BRD4 IC50
[7] = Homo sapiens, NOMO1 (NOMO-1) cell line

PLK1, sequence (P53350 whole entry): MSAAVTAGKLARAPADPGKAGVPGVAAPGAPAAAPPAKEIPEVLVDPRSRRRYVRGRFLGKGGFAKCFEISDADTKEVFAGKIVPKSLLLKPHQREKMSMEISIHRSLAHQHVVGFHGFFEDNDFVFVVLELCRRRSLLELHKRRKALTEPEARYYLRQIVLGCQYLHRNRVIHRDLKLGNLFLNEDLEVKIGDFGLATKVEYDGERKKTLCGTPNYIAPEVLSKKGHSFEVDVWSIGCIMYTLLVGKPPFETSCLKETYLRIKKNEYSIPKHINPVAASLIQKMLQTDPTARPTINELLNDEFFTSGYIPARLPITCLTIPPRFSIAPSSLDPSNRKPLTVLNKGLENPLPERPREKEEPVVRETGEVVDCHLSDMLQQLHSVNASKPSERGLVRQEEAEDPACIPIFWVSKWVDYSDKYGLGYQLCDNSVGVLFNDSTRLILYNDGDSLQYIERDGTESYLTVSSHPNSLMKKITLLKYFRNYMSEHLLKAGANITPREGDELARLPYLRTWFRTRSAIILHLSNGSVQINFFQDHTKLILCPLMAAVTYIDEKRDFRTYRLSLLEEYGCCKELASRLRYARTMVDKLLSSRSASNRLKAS

Compound | IC50 (MV411; Homo sapiens, MV4-11) [µM] | IC50 (TF-1; Homo sapiens) [µM] | IC50 (MOLM-13; Homo sapiens) [µM] | IC50 (BRD4 [3]) [µM] | IC50 (Kasumi-1; Homo sapiens) [µM] | IC50 (797; 797 cell line, Table 2) [µM] | IC50 (BRD4 [4]; [6]) [µM] | IC50 (PLK1) [µM] | IC50 (BRDT) [µM] | IC50 (NOMO1; [7]) [µM] | also measured
CC[C@@H]1C(=O)N(C)c2cnc(Nc3ccc(C(=O)N[C@H]4CC[C@H](N5CCN(CC6CC6)CC5)CC4)cc3OC)nc2N1C(C)C |  |  |  |  |  |  |  |  |  |  | Kd (BRD4.1 [1]): 0.255 µM; IC50 (BRD4.1 [2]): 1.07 µM
CC[C@@H]1C(=O)N(C)c2cnc(Oc3ccc(C(=O)NC4CCN(C)CC4)cc3OC)nc2N1C1CCCC1 | 0.316 | 5.4 | 1.59 | 0.415 | 1.29 | 0.425 | 0.72 | > 10 | 1.17 |  | IC50 (NOMO1; [5]): 7.4 µM
CC[C@@H]1C(=O)N(C)c2cnc(N(C)c3ccc(C(=O)NC4CCN(C)CC4)cc3OC)nc2N1C1CCCC1 | 0.2 | 1.58 | 0.351 | 0.13 | 0.339 | 0.342 | 0.247 | 0.725 | 0.365 | 0.771 | 
CC[C@@H]1C(=O)N(C)c2cnc(Nc3ccc(C(=O)NC4CCN(C)CC4)cc3OC3CCCC3)nc2N1C1CCCC1 | 0.0712 | 0.302 | 0.114 | 0.112 | 0.0749 | 0.095 | 0.078 | 0.019 | 0.491 | 0.114 | 
CC[C@@H]1C(=O)N(CC)c2cnc(Nc3ccc(C(=O)NC4CCN(C)CC4)cc3OC)nc2N1C1CCCC1 | 0.112 | 0.806 | 0.174 | 0.339 | 0.239 | 0.166 | 0.546 |  | 1.33 | 0.232 | 
CC[C@@H]1C(=O)N(C)c2cnc(Nc3ccc(C(=O)NC4CCN(C)CC4)cc3OC3CCOCC3)nc2N1C1CCCC1 |  |  |  | 0.175 |  | 0.088 | 0.228 | 0.0576 | 0.862 |  | IC50 (MV411): 0.0746 µM; IC50 (TF-1): 1.16 µM; IC50 (MOLM-13): 0.111 µM; IC50 (NOMO1; NOMO1 (NOMO-1) cell line): 0.491 µM; IC50 (Kasumi-1): 0.183 µM
CC[C@@H]1C(=O)Nc2cnc(Nc3ccc(C(=O)NC4CCN(C)CC4)cc3OC)nc2N1C1CCCC1 | 0.302 | 6.7 | 0.341 | 9.17 | 1.47 | 0.42 | 6.3 | 0.129 | 21.1 |  | IC50 (NOMO1; [5]): 3.2 µM
CC[C@@H]1C(=O)N(C)c2cnc(Nc3ccc(C(=O)NC4CCN(C)CC4)cc3)nc2N1C1CCCC1 | 0.01 |  | 0.0085 | 0.147 |  |  |  | 0.0041 | 0.688 | 0.029 | IC50 797: 0.006 µM; IC50 (AURKA): 9.36 µM; IC50 (BRD4 [4]): 0.231 µM
CC[C@@H]1C(=O)N(C)c2cnc(N3CCOc4cc(C(=O)NC5CCN(C)CC5)ccc43)nc2N1C1CCCC1 | 0.976 |  | 3.49 | 1.62 |  | 1.94 | 0.832 | 1.7 | 5.37 | 5.42 | 
CC[C@@H]1C(=O)N(C)c2cnc(N3CCc4cc(C(=O)NC5CCN(C)CC5)ccc43)nc2N1C1CCCC1 | 0.086 |  | 0.137 | 0.053 |  | 0.064 | 0.043 | 0.02 | 0.213 | 0.247 | 
CC[C@@H]1C(=O)N(C)c2ccc(Nc3ccc(C(=O)NC4CCN(C)CC4)cc3OC)nc2N1C1CCCC1 | 0.404 |  | 0.851 | 0.263 |  | 0.701 | 0.188 | 1.87 | 0.859 | 1.83 | 
CC[C@@H]1C(=O)N(C)c2ccc(N3CCc4cc(C(=O)NC5CCN(C)CC5)ccc43)nc2N1C1CCCC1 | 0.357 |  | 0.828 | 0.394 |  | 0.937 | 0.172 | > 10 | 1.05 | 1.73 | 
C[C@@H]1C(=O)N(C)c2ccc(N3CCc4cc(C(=O)NC5CCN(C)CC5)ccc43)nc2N1C1CCCC1 | 0.135 |  | 0.333 | 0.16 |  | 0.227 | 0.078 | > 10 | 0.469 | 0.728 | 
COc1cc(C(=O)NC2CCN(C)CC2)ccc1Nc1ncc2c(n1)N(C1CCCC1)[C@H](CC(C)C)C(=O)N2C | 0.55 |  | 0.461 | 13.5 |  | 0.292 | 18.8 | 0.078 | 24.5 | 0.775 | 
COc1cc(C(=O)NC2CCN(C)CC2)ccc1Nc1ccc2c(n1)N(C1CCCC1)[C@H](C)C(=O)N2C | 0.021 |  | 0.218 | 0.092 |  | 0.181 | 0.1 | > 10 | 0.249 | 0.529 | 
Cc1sc2c(c1C)C(c1ccc(Cl)cc1)=N[C@@H](CC(=O)OC(C)(C)C)c1nnc(C)n1-2 [JQ1, reference compound] |  |  |  |  |  | 0.092 |  |  |  |  | IC50 (MV411): 0.0656 µM; IC50 (TF-1): 0.109 µM; IC50 (MOLM-13): 0.0892 µM; IC50 (NOMO1; NOMO1 (NOMO-1) cell line): 0.172 µM; IC50 (Kasumi-1): 0.0488 µM
CC[C@@H]1C(=O)N(C)c2cnc(Nc3ccc(C(=O)NC4CCN(C)CC4)cc3OC)nc2N1C1CCCC1 [drawing 199] |  |  |  |  |  |  |  |  |  |  | EC50 (797; read-out: 797 (EC50, M)): 1.07e-08 M; EC50 (HL60): 3.65e-08 M
CC[C@@H]1C(=O)N(C)c2cnc(Nc3ccc(C(=O)NC4CCN(C)CC4)cc3OC)nc2N1C1CCCC1 [drawing 214] | 0.0054 | 0.772 | 0.0081 |  | 0.0099 |  |  |  |  | 0.0119 | IC50 797: 0.005 µM
C[C@@H](Oc1cc(-n2cnc3ccc(CN4CCN(C)CC4)cc32)sc1C(N)=O)c1ccccc1C(F)(F)F [reference compound] | 0.0071 |  |  | > 50 | 0.0078 | 0.008 |  |  | > 50 |  | TF-1 IC50 (TF-1; result in words): poor convergence
